The values that follow come from PubChem BioAssay (NCI).

Some test systems named below: A498 renal; HL-60(TB) leukemia; K-562 leukemia; M14 melanoma; MDA-MB-231 breast; MDA-MB-435; MOLT-4 leukemia; NCI-H23 lung; NCI-H522 lung; OVCAR-3 ovarian; OVCAR-8 ovarian; RPMI-8226 leukemia; RXF 393 renal; SK-MEL-2 melanoma; SNB-75 CNS; SR leukemia; U251 CNS; UACC-62 melanoma.
Holding throughout (assay): NCI anticancer screen, dose series, 48 h

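Results reflect a 48-hour exposure of cells in 96-well plates to compound at five concentrations. Definition used: TGI = concentration required for complete inhibition of growth.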 Bounds are passed on as bounds.

As for `OC1c2ccccc2[C@@H]2[C@H]1[C@@H](c1ccccc1)C1(Cc3ccccc3C1O)[C@H]2c1ccccc1` (some centres not stated), the TGI with A498 renal worked out at 23.6 µM; in the assay on HL-60(TB) leukemia, 4.47 µM; in the assay on K-562 leukemia, 10.7 µM; in the assay on M14 melanoma it was 17.1 µM; in the assay on MDA-MB-231 breast, 20.3 µM; in the assay on MDA-MB-435 it was 7.73 µM. Besides, the TGI with MOLT-4 leukemia was 8.57 µM; with NCI-H23 lung, 18.4 µM; in the assay with NCI-H522 lung, 14.2 µM; in the assay on OVCAR-3 ovarian, 6.27 µM; in the assay on OVCAR-8 ovarian it was 15.3 µM; in the assay on RPMI-8226 leukemia, 9.89 µM. Further, the TGI with RXF 393 renal came out at 4.83 µM; in the assay with SK-MEL-2 melanoma, 20 µM; in the assay with SNB-75 CNS, 21.5 µM; in the assay with SR leukemia it was 4.49 µM; in the assay with U251 CNS it was 14.1 µM; in the assay on UACC-62 melanoma, 20.6 µM.
Regarding `CCOC(=O)c1cccc(NC(=O)CBr)c1`, the TGI turned out to be 14.7 µM in the assay on A498 renal; 3.58 µM with HL-60(TB) leukemia; 1.63 µM in the assay with K-562 leukemia; 2.75 µM in the assay with M14 melanoma; 3.51 µM in the assay with MDA-MB-231 breast; 2.51 µM in the assay with MDA-MB-435. The TGI is 1.29 µM in the assay on MOLT-4 leukemia; 2.77 µM in the assay with NCI-H23 lung; 0.0437 µM in the assay on NCI-H522 lung; 3.34 µM in the assay on OVCAR-3 ovarian; more than 21.6 µM in the assay on OVCAR-8 ovarian; 3.74 µM in the assay with RPMI-8226 leukemia. For the same molecule, the TGI with RXF 393 renal came to 3.24 µM; in the assay with SK-MEL-2 melanoma, 3.2 µM; in the assay on SNB-75 CNS, 3.31 µM; with SR leukemia it was 0.521 µM; in the assay with U251 CNS, 1.89 µM; in the assay with UACC-62 melanoma, 2.92 µM.
In the case of `CCC1(OC(=O)CN2CCN(CCO)CC2)C(=O)OCc2c1cc1n(c2=O)Cc2cc3ccccc3nc2-1` (configuration not stated), the TGI in the assay with A498 renal worked out at 1.78 µM; in the assay with HL-60(TB) leukemia, 3.24 µM; in the assay on K-562 leukemia, 26.2 µM; in the assay on M14 melanoma, 1.92 µM; with MDA-MB-231 breast it was 65.7 µM; with MDA-MB-435, 4.38 µM. The TGI with MOLT-4 leukemia worked out at 1.59 µM; in the assay with NCI-H23 lung, 2.43 µM; in the assay on NCI-H522 lung it was 3.05 µM; in the assay with OVCAR-3 ovarian it was 3.81 µM; in the assay on OVCAR-8 ovarian, 16 µM; in the assay with RPMI-8226 leukemia, 5.28 µM. The TGI stood at 3.27 µM with RXF 393 renal; 9.52 µM with SK-MEL-2 melanoma; 1.92 µM with SNB-75 CNS; 0.305 µM in the assay on SR leukemia; 2.41 µM with U251 CNS; 1.05 µM in the assay on UACC-62 melanoma.
Consider `Nc1nc(Cl)c(C=O)c(NCC2(CO)CC(CCc3ccccc3)C2)n1` (configuration not stated), for which the TGI in the assay on A498 renal was found to be 42.1 µM; in the assay on HL-60(TB) leukemia it was 3.34 µM; in the assay on K-562 leukemia, 4.57 µM; in the assay on M14 melanoma, 6.25 µM; in the assay with MDA-MB-231 breast, 23.7 µM; with MDA-MB-435, 17.9 µM. In addition, the TGI is 9.01 µM in the assay on MOLT-4 leukemia; 5.49 µM in the assay on NCI-H23 lung; 3.56 µM in the assay with NCI-H522 lung; 24.4 µM in the assay on OVCAR-3 ovarian; 6.03 µM in the assay on OVCAR-8 ovarian; 35.8 µM with RPMI-8226 leukemia. Besides, the TGI with RXF 393 renal was determined as 31.5 µM; with SK-MEL-2 melanoma, 19.2 µM; in the assay on SNB-75 CNS, 37.5 µM; in the assay with SR leukemia, 4.15 µM; in the assay on U251 CNS, 26.6 µM; in the assay on UACC-62 melanoma, 16.2 µM.
`Cc1cc(C)c(S(=O)(=O)N[C@@H](/C=C(\Br)CO)C(C)C)c(C)c1`: the TGI in the assay on A498 renal was 68 µM; with HL-60(TB) leukemia, 40.3 µM; with K-562 leukemia it was 50.4 µM; in the assay on M14 melanoma it was 91.3 µM; in the assay with MDA-MB-231 breast, more than 100 µM; in the assay on MDA-MB-435, 34.1 µM. Also, the TGI in the assay with MOLT-4 leukemia is 75.3 µM; in the assay on NCI-H23 lung it was more than 100 µM; in the assay on NCI-H522 lung it was 37 µM; in the assay on OVCAR-3 ovarian it was 51.8 µM; in the assay with OVCAR-8 ovarian, more than 100 µM; in the assay with RPMI-8226 leukemia, 54.5 µM. Moreover, the TGI in the assay with RXF 393 renal was 63.3 µM; in the assay on SK-MEL-2 melanoma it was 33.7 µM; in the assay with SNB-75 CNS, more than 100 µM; in the assay on SR leukemia, 68.8 µM; in the assay with U251 CNS, more than 100 µM; with UACC-62 melanoma, 28.2 µM.
In the case of `CC[C@@H](CCCC[C@@H]1CC[C@H]2CC(=O)C[C@@H]12)OC`, the TGI in the assay with A498 renal, with HL-60(TB) leukemia, with K-562 leukemia, with M14 melanoma, with MDA-MB-231 breast and in the assay with MDA-MB-435 was more than 100 µM throughout. For the same molecule, the TGI in the assay on MOLT-4 leukemia, with NCI-H23 lung, in the assay on NCI-H522 lung, in the assay on OVCAR-3 ovarian, in the assay on OVCAR-8 ovarian and in the assay with RPMI-8226 leukemia was more than 100 µM in each case. For the same molecule, the TGI with RXF 393 renal, with SK-MEL-2 melanoma, in the assay with SNB-75 CNS, with SR leukemia, with U251 CNS and in the assay on UACC-62 melanoma was more than 100 µM each time.
On to `CN(C)CCN1C(=O)CC[C@@]2(C)C1=CC[C@@H]1[C@@H]2CC[C@@]2(C)[C@H]1CC[C@]2(C)O`, for which the TGI with A498 renal, in the assay with HL-60(TB) leukemia, in the assay on K-562 leukemia, in the assay with M14 melanoma, in the assay with MDA-MB-231 breast and in the assay on MDA-MB-435 was more than 100 µM each time. Moreover, the TGI with MOLT-4 leukemia, with NCI-H23 lung, in the assay with NCI-H522 lung, in the assay with OVCAR-3 ovarian, with OVCAR-8 ovarian and with RPMI-8226 leukemia was more than 100 µM each time. Moreover, the TGI in the assay on RXF 393 renal, in the assay on SK-MEL-2 melanoma, in the assay on SNB-75 CNS, with SR leukemia, in the assay with U251 CNS and with UACC-62 melanoma was more than 100 µM throughout.
For the molecule `O=C(c1ccc(Cl)cc1Cl)N(Cc1cccnc1)C(=S)N(Cc1cccnc1)C(=O)c1ccc(Cl)cc1Cl`, the TGI in the assay with A498 renal was 24.4 µM; in the assay with HL-60(TB) leukemia it was 15.3 µM; in the assay with K-562 leukemia, more than 100 µM; with M14 melanoma, 9.26 µM; in the assay with MDA-MB-231 breast it was 6.53 µM; with MDA-MB-435, 66 µM. Also, the TGI in the assay with MOLT-4 leukemia is more than 100 µM; in the assay with NCI-H23 lung it was 44.6 µM; in the assay with NCI-H522 lung, 9.8 µM; in the assay on OVCAR-3 ovarian, 10.1 µM; in the assay on OVCAR-8 ovarian it was 13.5 µM; with RPMI-8226 leukemia, more than 100 µM. For the same molecule, the TGI with RXF 393 renal is 33.2 µM; in the assay on SK-MEL-2 melanoma, 13.7 µM; with SNB-75 CNS, 14 µM; with SR leukemia, more than 100 µM; in the assay with U251 CNS it was 9.88 µM; in the assay with UACC-62 melanoma, 23.8 µM.
`CN(C)CCOc1ccc(I)cc1Cc1ccccc1`: the TGI in the assay with A498 renal is 27.1 µM; in the assay on HL-60(TB) leukemia it was 18.1 µM; with K-562 leukemia it was 11.2 µM; in the assay with M14 melanoma it was 6 µM; with MDA-MB-231 breast, 12.3 µM; in the assay with MDA-MB-435, 15.4 µM. The TGI with MOLT-4 leukemia stood at 20.2 µM; in the assay on NCI-H23 lung, 12.6 µM; in the assay with NCI-H522 lung, 25 µM; with OVCAR-3 ovarian it was 26.7 µM; in the assay with OVCAR-8 ovarian, 30.6 µM; in the assay with RPMI-8226 leukemia it was 23.9 µM. In addition, the TGI in the assay with RXF 393 renal is 32.5 µM; in the assay on SK-MEL-2 melanoma, 30.7 µM; in the assay with SNB-75 CNS it was 6.79 µM; with SR leukemia it was 7.81 µM; with U251 CNS, 27.1 µM; with UACC-62 melanoma, 13.1 µM.
